Columns and labels:
[1] = system: MCF7; assay: Cytotoxicity against human MCF7 cells assessed as reduction in cell survival after 48 hrs by MTT assay; format: functional, cell-based; settings: MCF7, 48 h
[2] = system: P388; assay: Cytotoxicity against mouse P388 cells assessed as reduction in cell viability; format: functional, cell-based
[3] = system: MDA-MB-231; assay: Cytotoxicity against human MDA-MB-231 cells assessed as cell survival at 10 uM after 48 hrs by MTT assay relative to control; format: functional; settings: MDA-MB-231, 48 h, read-out: Survival
[4] = system: BT-474; assay: Cytotoxicity against human BT474 cells assessed as cell survival at 10 uM after 48 hrs by MTT assay relative to control; format: functional; settings: BT-474, 48 h, read-out: Survival
[5] = system: HCT-116; assay: Cytotoxicity against human HCT116 cells assessed as cell survival at 10 uM after 48 hrs by MTT assay relative to control; format: functional; settings: HCT-116, 48 h, read-out: Survival
[6] = system: Jurkat; assay: Cytotoxicity against human Jurkat cells assessed as cell survival at 10 uM after 48 hrs by MTT assay relative to control; format: functional; settings: read-out: Survival
[7] = system: MCF7; assay: Cytotoxicity against human MCF7 cells assessed as cell survival at 10 uM after 48 hrs by MTT assay relative to control; format: functional; settings: MCF7, 48 h, read-out: Survival
[8] = system: HCT-116; assay: Toxicity in human HCT116 cells at 20 uM after 40 hrs by LDH assay; format: cell-based; settings: hct-116, 40 h
[9] = system: HCT-116; assay: Cytotoxicity against human HCT116 cells assessed as reduction in cell survival after 48 hrs by MTT assay; format: functional, cell-based; settings: HCT-116, 48 h
[10] = species: Sus scrofa; assay: Inhibition of porcine brain tubulin polymerization at 3.2 uM incubated for 5 mins by fluorimetry
[11] = species: Sus scrofa; assay: Inhibition of porcine brain tubulin polymerization incubated for 5 mins by fluorimetry
[12] = system: Jurkat; assay: Induction of apoptosis in human Jurkat cells increase in caspase 3/7 activity at 1 uM measured up to 180 mins by fluorescence assay relative to control; format: functional
[13] = system: MDA-MB-231; assay: Toxicity in human MDA-MB-231 cells at 20 uM after 40 hrs by LDH assay; format: cell-based; settings: mda-mb-231, 40 h
[14] = system: Jurkat; assay: Cytotoxicity against human Jurkat cells assessed as reduction in cell survival after 48 hrs by MTT assay; format: functional, cell-based
[15] = system: MDA-MB-231; assay: Cytotoxicity against human MDA-MB-231 cells assessed as reduction in cell survival after 48 hrs by MTT assay; format: functional, cell-based; settings: MDA-MB-231, 48 h
[16] = system: Jurkat; assay: Toxicity in human Jurkat cells at 20 uM after 40 hrs by LDH assay; format: cell-based
[17] = system: MCF7; assay: Toxicity in human MCF7 cells at 20 uM after 40 hrs by LDH assay; format: cell-based; settings: mcf7, 40 h
[18] = system: BT-474; assay: Toxicity in human BT474 cells at 20 uM after 40 hrs by LDH assay; format: cell-based; settings: bt-474, 40 h
[19] = system: BT-474; assay: Cytotoxicity against human BT474 cells assessed as reduction in cell survival after 48 hrs by MTT assay; format: functional, cell-based; settings: BT-474, 48 h

SMILES	viability at 10 µM [3] [%]	viability at 10 µM [4] [%]	viability at 10 µM [5] [%]	viability at 10 µM [6] [%]	viability at 10 µM [7] [%]	further results
O=C(Nc1ccncc1)C(=O)c1cn(Cc2ccc(Cl)cc2)c2ccccc12 [INDIBULIN]						IC50 [1]: 1.1 µM
Brc1ccc2c(-c3c[nH]c(-c4c[nH]c5cc(Br)ccc45)n3)c[nH]c2c1 [NORTOPSENTIN A]						IC50 [2]: 4.5 to 20.7 µM
O=C(N/N=C/c1ccncc1)C(=O)c1cn(Cc2ccc(Cl)cc2)c2ccccc12	71.2	78.7	69.1	66.7	82.2	
COc1ccc2[nH]cc(/C=N/NC(=O)C(=O)c3cn(Cc4ccc(Cl)cc4)c4ccccc34)c2c1	29.4	21.2	38.2	36.1	33.7	Activity [8]: 20 to 25%; IC50 [1]: 3.8 µM; IC50 [9]: 4.2 µM; inhibition [10]: 50%; inhibition [11]: Dose-dependent effect; fold change (FC) [12]: 2 - 5; Activity [13]: 20 to 25%; IC50 [14]: 3.6 µM; IC50 [15]: 2.9 µM; Activity [16]: 20 to 25%; Activity [17]: 20 to 25%; Activity [18]: 20 to 25%; IC50 [19]: 2.7 µM
COc1ccc2c(c1)c(/C=N/NC(=O)C(=O)c1c[nH]c3ccc(Br)cc13)cn2Cc1ccc(Cl)cc1	103	99.1	86.1	46.6	96.1	
COc1cccc(/C=N/NC(=O)C(=O)c2c[nH]c3ccccc23)c1	97.2	95.1	72.4	59.7	96.8	
O=C(N/N=C/c1c[nH]c2cc(Br)ccc12)C(=O)c1c[nH]c2ccccc12	95.1	86.8	94.5	75.4	92.7	
Brc1ccc2c(-c3c[nH]c(-c4c[nH]c5ccccc45)n3)c[nH]c2c1 [NORTOPSENTIN C]						IC50 [2]: 4.5 to 20.7 µM
O=C(N/N=C/c1cn(Cc2ccc(Cl)cc2)c2ccc(Br)cc12)C(=O)c1c[nH]c2ccccc12	88.8	94.7	72.6	93.2	107	
O=C(N/N=C/c1c[nH]c2ccc(F)cc12)C(=O)c1c[nH]c2ccccc12	102	112	85.1	56.7	105	
O=C(N/N=C/c1c[nH]c2cc(F)ccc12)C(=O)c1c[nH]c2ccccc12	106	88.2	104	69.9	40.2	
COc1ccc(-c2[nH]c3ccccc3c2/C=N/NC(=O)C(=O)c2c[nH]c3ccccc23)cc1	98.8	94.2	71.8	81.6	107	
COc1ccc(/C=N/NC(=O)C(=O)c2c[nH]c3ccccc23)cc1OC	94.6	103	92.8	78.9	99.8	
COc1cc(/C=N/NC(=O)C(=O)c2c[nH]c3ccccc23)cc(OC)c1OC	103	101	99.1	69.6	110	
O=C(N/N=C/c1c[nH]c2cc(F)ccc12)C(=O)c1c[nH]c2ccc(Br)cc12	111	94.8	84.2	95.8	97.5	
